The text below walks through data of patent US11458138B2 (Novartis AG, priority 2017, dated 2022).

In assay [1] the test system is human corneal endothelial cells (CECs). Nature of the assay: Human corneal endothelial cell population expansion, cell confluence (Incucyte). In kind it is cell-based. Particulars: 10 micromolar, 10 days. On the procedure:
Cells obtained as described in Example C1 were detached from the culture dish with 100 microlitres of Accutase (ThermoFisher) for 10 minutes at 37° C., cell suspensions were rinsed by centrifugation and plated in corneal endothelial cell culture medium (human endothelial SF medium (Invitrogen) with human serum) in 6-well plates (Corning) supplemented with LATS inhibitor compound example no. […] Cells were cultured at 37° C. in 5% CO2.
To measure cell proliferation, an Incucyte machine was used following the manufacturer's instructions (Essen Biosciences) to perform real-time quantitative live-cell analysis of cell confluence every 3 hours for 10 days.

Assay [2] concerns YAP in human CECs. Nature of the assay: Intracellular YAP distribution in corneal endothelial cells (CECs). It counts as cell-based. Particulars: 10 micromolar, 24 hours. On the procedure: Cells obtained as described in Example C1 were plated in glass-bottom black wall 24-well dishes in corneal endothelial cell culture medium (human endothelial SF (serum free) medium (Invitrogen) with human serum) supplemented with LATS inhibitor compound example no. 133 or compound example no. […] Cells were cultured under these conditions for 24 hours at 37° C. in 5% CO2.
To measure the effect of the LATS inhibitors on the downstream target YAP, intracellular YAP distribution was analyzed by immunohistochemistry. Cell cultures were fixed with 4% PFA for 20 minutes, permeabilized and blocked in a blocking solution of 0.3% Triton X-100 (Sigma-Aldrich) and 3% donkey serum in PBS for 30 minutes. Cells were then labeled with primary antibody in the blocking solution for 12 hours at 4° C. Primary antibody used was anti-YAP from Santa Cruz Biotechnology. Samples were washed in PBS three times and donkey-raised secondary antibody Alexa Fluor 488 (Molecular Probes) at 1:500 dilution were applied for 30 minutes at room temperature. […] Fluorescence was observed using a Zeiss LSM 880 confocal microscope.

In assay [3] the test system is limbal stem cells (LSCs). Nature of the assay: Differentiation of expanded LSCs into corneal epithelium cells (p63alpha / keratin 12). Particulars: transferred to conditions that enable differentiation. In kind it is cell-based, human. The text has this:
Shown are views where the transition from the p63alpha-positive cell identity to the keratin-12 identity are occurring.
These characteristics can be observed by immunohistochemistry or FACS.

Assay [4] concerns human limbal stem cells (LSCs). Nature of the assay: Human limbal stem cell population expansion, immunohistochemical observation of p63alpha. It counts as cell-based. Conditions: for LSC colony formation and p63alpha expression: 10 micromolar, 6 days without passaging. On the procedure:
Cells obtained as described in Example B1 were plated in 24-well plates (Corning) in limbal epithelium cell culture medium (DMEM F12 supplemented with 10% human serum and 1.3 mM calcium chloride) supplemented with LATS inhibitor compound example no. […] Cells were first cultured at 37° C. in 5% CO2 for 6 days after isolation without passaging (FIGS. 2A, 2B and 2C).
To evaluate the ability of the compounds to enable LSC expansion after two passages, LSCs were passaged and cultured for two weeks in the presence of compound example 49 to enable expansion (FIG. 2D). Limbal stem cells (LSCs) were passaged by treating cultures with Accutase for 10 minutes at 37° C., rinsing the cell suspension by centrifugation and plating cells in fresh LSC culture medium supplemented with LATS inhibitor compound example 49.
In order to observe that the expanded cell population expressed p63alpha, this was measured by immunohistochemistry as follows. Cell cultures were fixed with 4% PFA for 20 minutes, permeabilized and blocked in a blocking solution of 0.3% Triton X-100 (Sigma-Aldrich) and 3% donkey serum in PBS for 30 minutes. Cells were then labeled with primary antibody in the blocking solution for 12 hours at 4° C. Primary antibody used was p63alpha from Cell Signalling. Samples were washed in PBS three times and donkey-raised secondary antibody Alexa Fluor 488 (Molecular Probes) at 1:500 dilution were applied for 30 minutes at room temperature. Cells were counter-stained with a human nuclear antigen antibody (Millipore) at a 1:500 dilution in order to label all cells in the culture and confirm their human identity. […] Fluorescence was observed using a Zeiss LSM 880 confocal microscope.

The subject of assay [5] is human limbal stem cells (LSCs). Nature of the assay: Human limbal stem cell population expansion: percentage of p63alpha-positive cells. In kind it is cell-based. Conditions: 10 micromolar, XVIVO15 medium. On the procedure: Cells were cultured at 37° C. in 5% CO2.
For each compound, two sets of cultures were generated. A first set of cultures was fixed in 4% PFA for 20 minutes at room temperature after cells isolated from the cornea had attached to the cell culture dish (typically 24 h after cell plating). A second set of cultures was fixed in 4% PFA for 20 minutes at room temperature after being cultured for two passages. Cells were passaged when they reached 90-100% confluence.
In order to observe that the expanded cell population expressed p63alpha, this was measured by immunohistochemistry as follows. The fixed cell cultures were permeabilized and blocked in a blocking solution of 0.3% Triton X-100 (Sigma-Aldrich) and 3% donkey serum in PBS for 30 minutes. Cells were then labeled with primary antibody in the blocking solution for 12 hours at 4° C. Primary antibody used was p63alpha from Cell Signalling. Samples were washed in PBS three times and donkey-raised secondary antibody Alexa Fluor 488 (Molecular Probes) at 1:500 dilution were applied for 30 minutes at room temperature. Cell nuclei were then labeled in a solution of 0.5 micromolar of Sytox Orange (ThermoFisher) in PBS for 5 minutes at room temperature.
To evaluate the percentage of p63alpha-positive cells, the number of cells labeled by the anti-p63alpha antibody was counted and the total number of cells was determined by counting the number of nuclei stained by Sytox Orange. The proportion of p63alpha-positive cells was then determined by calculating the percentage of Sytox-orange-positive nuclei that also expressed p63alpha.

The target in assay [6] is Human LATS1 kinase domain protein (Homo sapiens (Human), UniProt O95835). The assay can be described thus: LATS1 Biochemical Caliper Assay. Conditions: 400 micromolar ATP. On the procedure: Human LATS1 kinase domain protein was purchased from Carnabio (catalogue number 01-123), which harbors the catalytic domain of amino acids 589-1130, and was co-purified with human His-tagged MOBKL1A (NP_775-739). 5 microlitre of enzyme buffer, 100 nL of compounds and 5 microlitre of localising aid buffer were added into 384-well plates. The final assay reaction mix contains 100 mM HEPES, pH7.5, 0.1% BSA, 0.01% Triton X-100, 1 mM DTT, 10 mM MgCl2, 10 micromolar Sodium Orthovanadate, 10 micromolar Beta-Glycerophosphate, 400 micromolar ATP, 1% DMSO, 1.1 nM LATS1 enzyme (Carnabio, 01-123), 1 micromolar localising aid of FAM-[…]-COOH (SEQ ID NO: 24) (NanoSyn). The plates were incubated at 25° C. for 3 hours. 40 microlitre of stop buffer with 25 mM EDTA (NanoSyn) was added to each well to terminate the reaction. Localising aids and products were separated electrophoretically using the microfluidic-based Caliper Labchip 3000 Drug Discovery System (Caliper Life Sciences). Plates were read using blue laser excitation and green fluorescence detection and quantified by fluorescence intensity. […] According to this assay the LATS1 IC50 values in micromolar for the following compounds are: […]
Chain of Human LATS1 kinase domain protein (O95835 whole entry, looked up, the tested form may be a part): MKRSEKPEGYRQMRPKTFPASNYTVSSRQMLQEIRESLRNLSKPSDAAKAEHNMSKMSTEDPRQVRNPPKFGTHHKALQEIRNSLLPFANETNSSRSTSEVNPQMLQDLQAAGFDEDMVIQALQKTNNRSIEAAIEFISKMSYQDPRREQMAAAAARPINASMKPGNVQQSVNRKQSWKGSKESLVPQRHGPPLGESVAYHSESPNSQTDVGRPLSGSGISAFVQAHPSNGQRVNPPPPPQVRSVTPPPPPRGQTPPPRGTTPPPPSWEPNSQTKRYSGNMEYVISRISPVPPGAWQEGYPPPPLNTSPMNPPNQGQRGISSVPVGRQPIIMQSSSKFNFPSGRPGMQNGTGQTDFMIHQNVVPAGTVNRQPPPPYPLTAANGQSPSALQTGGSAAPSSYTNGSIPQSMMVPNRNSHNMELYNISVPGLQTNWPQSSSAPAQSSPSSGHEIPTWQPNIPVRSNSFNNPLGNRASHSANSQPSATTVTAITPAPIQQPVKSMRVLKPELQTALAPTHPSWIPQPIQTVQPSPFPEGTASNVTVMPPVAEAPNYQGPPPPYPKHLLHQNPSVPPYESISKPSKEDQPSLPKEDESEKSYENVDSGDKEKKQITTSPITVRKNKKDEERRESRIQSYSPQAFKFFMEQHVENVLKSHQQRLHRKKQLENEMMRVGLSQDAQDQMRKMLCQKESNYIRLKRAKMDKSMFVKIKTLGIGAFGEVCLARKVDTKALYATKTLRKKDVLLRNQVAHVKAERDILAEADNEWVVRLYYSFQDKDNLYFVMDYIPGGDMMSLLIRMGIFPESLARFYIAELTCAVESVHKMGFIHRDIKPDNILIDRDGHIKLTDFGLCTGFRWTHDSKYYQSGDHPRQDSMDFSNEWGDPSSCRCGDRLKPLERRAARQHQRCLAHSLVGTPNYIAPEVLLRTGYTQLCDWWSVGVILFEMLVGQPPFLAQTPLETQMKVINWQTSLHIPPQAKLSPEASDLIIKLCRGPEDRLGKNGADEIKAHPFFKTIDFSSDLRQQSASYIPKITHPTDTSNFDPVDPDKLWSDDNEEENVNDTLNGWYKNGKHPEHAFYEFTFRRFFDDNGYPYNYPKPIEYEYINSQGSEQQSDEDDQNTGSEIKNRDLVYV
Chain of Human LATS1 kinase domain protein (Q7L9L4 whole entry partner, looked up, the tested form may be a part): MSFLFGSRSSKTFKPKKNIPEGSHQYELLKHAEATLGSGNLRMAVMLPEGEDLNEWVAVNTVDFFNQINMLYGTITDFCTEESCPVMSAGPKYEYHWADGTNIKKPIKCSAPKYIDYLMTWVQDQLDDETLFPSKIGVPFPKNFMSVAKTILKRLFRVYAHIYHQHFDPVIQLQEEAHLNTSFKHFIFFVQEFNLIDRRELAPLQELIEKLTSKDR

In the case of `CC(C)(O)CC(C)(C)Nc1nc(-c2ccncc2)nc2cnccc12` [Example 49, 2,4-dimethyl-4-{[2-(pyridin-4-yl)pyrido[3,4-d]pyrimidin-4-yl]amino}pentan-2-ol], the “Proliferation of human CECs (percentage confluence over time)” value in assay [1] is given as “could activate proliferation in these cells”. For the same molecule, the “YAP immunostaining in CECs” value in assay [2] is “stronger”. In addition, the “differentiation of expanded LSCs into corneal epithelium cells (keratin 12)” value in assay [3] is on record as “can differentiate into corneal epithelium cells”. The “LSC colony formation and p63alpha expression” value in assay [4] is “the cells formed colonies and expressed p63alpha”. In addition, the “LSC population expansion after passaging” value in assay [4] (passaged and cultured two weeks) is “enabled cell population expansion and the formation of confluent cultures expressing p63alpha”. Also, the “Percentage of p63a-positive cells” value in assay [5] was 92%. Further, in assay [6], half-maximal inhibition (IC50) required 12 nM.

Consider `CCCNc1nc(-c2ccncc2)nc2cnccc12` [Example 14, N-propyl-2-(pyridin-4-yl)pyrido[3,4-d]pyrimidin-4-amine], for which the “Percentage of p63a-positive cells” value in assay [5] came to 93%. Besides, the IC50 (in general, the concentration that inhibits the measured activity by half) in assay [6] came to 34 nM.

Take `c1cc(-c2nc(NC3CCCC3)c3ccncc3n2)ccn1` [Example 65, N-cyclopentyl-2-(pyridin-4-yl)pyrido[3,4-d]pyrimidin-4-amine]: the “Percentage of p63a-positive cells” value in assay [5] worked out at 87%. The molecule further came in with an IC50 in assay [6] of 22 nM.

Turning to `Cc1n[nH]cc1-c1nc(NC2(C)CC2)c2ccncc2n1` [Example 133, 2-(3-methyl-1H-pyrazol-4-yl)-N-(1-methylcyclopropyl)pyrido[3,4-d]pyrimidin-4-amine], the “Proliferation of human CECs (percentage confluence over time)” value in assay [1] is given as “could activate proliferation in these cells”. Also, the “YAP immunostaining in CECs” value in assay [2] is reported as “stronger”. The “LSC colony formation and p63alpha expression” value in assay [4] was “the cells formed colonies and expressed p63alpha”. For the same molecule, the “Percentage of p63a-positive cells” value in assay [5] amounted to 89%. In assay [6], the IC50 is 4 nM.

Regarding `CC(C)(C)Nc1cc(-c2ccncc2)nc2cnccc12` [Example 261, N-(tert-butyl)-2-(pyridin-4-yl)-1,7-naphthyridin-4-amine], in assay [3], the “differentiation of expanded LSCs into corneal epithelium cells (keratin 12)” value is listed as “can differentiate into corneal epithelium cells”. The “Percentage of p63a-positive cells” value in assay [5] turned out to be 93%.
